What was measured:
Danio rerio embryo [1] = assay: EC50 Yolk sac size_Increase
Method: (§1)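 Zebrafish embryos (UFZ-OBI strain) were exposed from 2 hpf for 48 h (2 dpf) or 96 h (4 dpf) at 28 °C; spontaneous tail coiling was scored at 25 hpf. Morphological features from automated image analysis (FishInspector), heart rate and locomotor response were fitted with drc models. Quantal endpoints were dichotomised at 2.5 SD from controls and fitted with a log-logistic model; heart rate, pigmentation and STC were normalised to the replicate control mean. Betamethasone was tested as betamethasone dipropionate, diflorasone as diflorasone diacetate.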

Danio rerio embryo [2] = assay: EC20 Curvature_Increase; higher = less potent
Method: as §1

Danio rerio embryo [3] = assay: EC20 LMR ligth decrease; higher = less potent; conditions: exposure time: 4 dpf
Method: as §1

Danio rerio embryo [4] = assay: EC50 Head trunk angle_Decrease; conditions: exposure time: 2 dpf
Method: as §1

Danio rerio embryo [5] = assay: EC10 LMR dark; higher = less potent; conditions: exposure time: 4 dpf
Method: as §1

Danio rerio embryo [6] = assay: EC50 Pericard size_Increase; conditions: exposure time: 2 dpf
Method: as §1

Danio rerio embryo [7] = assay: EC10 STC decrease; higher = less potent; conditions: exposure time: 25 h
Method: as §1

Danio rerio embryo [8] = assay: EC10 Pericard size_Increase; higher = less potent; conditions: exposure time: 2 dpf
Method: as §1

Danio rerio embryo [9] = assay: EC10 Body length_Decrease; higher = less potent
Method: as §1

Danio rerio embryo [10] = assay: EC20 Body length_Decrease; higher = less potent
Method: as §1

Danio rerio embryo [11] = assay: EC20 Any effect; higher = less potent
Method: as §1

Danio rerio embryo [12] = assay: EC20 Head size_Decrease; higher = less potent; conditions: exposure time: 2 dpf
Method: as §1

Danio rerio embryo [13] = assay: EC10 Head trunk angle_Decrease; higher = less potent; conditions: exposure time: 2 dpf
Method: as §1

Danio rerio embryo [14] = assay: EC50 Body length_Decrease
Method: as §1

Danio rerio embryo [15] = assay: EC10 Any effect; higher = less potent
Method: as §1

Danio rerio embryo [16] = assay: EC10 LMR ligth decrease; higher = less potent; conditions: exposure time: 4 dpf
Method: as §1

Danio rerio embryo [17] = assay: EC20 Eye size_Decrease; higher = less potent; conditions: exposure time: 2 dpf
Method: as §1

Danio rerio embryo [18] = assay: EC20 LMR dark; higher = less potent; conditions: exposure time: 4 dpf
Method: as §1

Danio rerio embryo [19] = assay: EC20 Pericard size_Increase; higher = less potent; conditions: exposure time: 2 dpf
Method: as §1

Danio rerio embryo [20] = assay: EC20 STC decrease; higher = less potent; conditions: exposure time: 25 h
Method: as §1

Danio rerio embryo [21] = assay: EC20 Bladder size_Decrease; higher = less potent; conditions: exposure time: 4 dpf
Method: as §1

Danio rerio embryo [22] = assay: EC10 Curvature_Increase; higher = less potent
Method: as §1

Danio rerio embryo [23] = conditions: exposure time: 4 dpf
Method: as §1

Danio rerio embryo [24] = assay: EC50 Bladder size_Decrease; conditions: exposure time: 4 dpf
Method: as §1

Danio rerio embryo [25] = assay: EC20 Head trunk angle_Decrease; higher = less potent; conditions: exposure time: 2 dpf
Method: as §1

Danio rerio embryo [26] = assay: EC50 Eye size_Decrease; conditions: exposure time: 2 dpf
Method: as §1

Danio rerio embryo [27] = assay: spontaneous tail coiling frequency (coils/min/embryo); higher = more spontaneous movement; conditions: 25 hpf
Method: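 Spontaneous tail coilings of zebrafish embryos exposed from 2 hpf were recorded at 24-25 hpf in 1-min videos and detected by a KNIME workflow from grey-value variance. Betamethasone was tested as the dipropionate, diflorasone as the diacetate.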

Danio rerio embryo [28] = assay: EC50 Curvature_Increase
Method: as §1

Danio rerio embryo [29] = assay: EC10 Head size_Decrease; higher = less potent; conditions: exposure time: 2 dpf
Method: as §1

Danio rerio embryo [30] = assay: EC20 Yolk sac size_Increase; higher = less potent
Method: as §1

Danio rerio embryo [31] = conditions: exposure time: 4 dpf; remark: listed apart in the source
Method: as §1

Danio rerio embryo [32] = system: Danio rerio embryo
Method: as §1

Danio rerio embryo [33] = assay: EC10 Eye size_Decrease; higher = less potent; conditions: exposure time: 2 dpf
Method: as §1

Danio rerio embryo [34] = assay: EC20 Eye-jaw distance_Decrease; higher = less potent; conditions: exposure time: 4 dpf
Method: as §1

Danio rerio embryo [35] = assay: EC10 Bladder size_Decrease; higher = less potent; conditions: exposure time: 4 dpf
Method: as §1

Danio rerio embryo [36] = assay: EC50 Eye-jaw distance_Decrease; conditions: exposure time: 4 dpf
Method: as §1

Danio rerio embryo [37] = assay: EC50 Head size_Decrease; conditions: exposure time: 2 dpf
Method: as §1

Danio rerio embryo [38] = assay: EC10 Lack of SB; higher = less potent; conditions: exposure time: 4 dpf
Method: as §1

Danio rerio embryo [39] = assay: EC10 Eye-jaw distance_Decrease; higher = less potent; conditions: exposure time: 4 dpf
Method: as §1

Danio rerio embryo [40] = assay: EC10 Yolk sac size_Increase; higher = less potent
Method: as §1

Danio rerio embryo [41] = assay: EC20 Lack of SB; higher = less potent; conditions: exposure time: 4 dpf
Method: as §1

CC1=C(/C=C/C(C)=C/C=C/C(C)=C/C(=O)O)C(C)(C)CCC1 [all-trans retinoic acid]
Conditions	EC10 Any effect [µM]	EC10 Body length Decrease [µM]	EC10 Curvature Increase [µM]	EC10 Yolk sac size Increase [µM]	EC20 Any effect [µM]	EC20 Body length Decrease [µM]	EC20 Curvature Increase [µM]	EC20 Yolk sac size Increase [µM]	EC50 Any effect [µM]	EC50 Body length Decrease [µM]	EC50 Curvature Increase [µM]	EC50 LMR ligth decrease [µM]	EC50 STC decrease [µM]	EC50 Yolk sac size Increase [µM]	spontaneous tail coiling frequency
Danio rerio embryo [1], exposure time: 2 dpf	–	–	–	–	–	–	–	–	–	–	–	–	–	0.045	–
Danio rerio embryo [1], exposure time: 4 dpf	–	–	–	–	–	–	–	–	–	–	–	–	–	0.039	–
Danio rerio embryo [2], exposure time: 2 dpf	–	–	–	–	–	–	0.009	–	–	–	–	–	–	–	–
Danio rerio embryo [2], exposure time: 4 dpf	–	–	–	–	–	–	0.007	–	–	–	–	–	–	–	–
Danio rerio embryo [9], exposure time: 2 dpf	–	0.031	–	–	–	–	–	–	–	–	–	–	–	–	–
Danio rerio embryo [9], exposure time: 4 dpf	–	0.023	–	–	–	–	–	–	–	–	–	–	–	–	–
Danio rerio embryo [10], exposure time: 2 dpf	–	–	–	–	–	0.033	–	–	–	–	–	–	–	–	–
Danio rerio embryo [10], exposure time: 4 dpf	–	–	–	–	–	0.03	–	–	–	–	–	–	–	–	–
Danio rerio embryo [11], exposure time: 2 dpf	–	–	–	–	0.008	–	–	–	–	–	–	–	–	–	–
Danio rerio embryo [11], exposure time: 4 dpf	–	–	–	–	0.007	–	–	–	–	–	–	–	–	–	–
Danio rerio embryo [14], exposure time: 2 dpf	–	–	–	–	–	–	–	–	–	0.036	–	–	–	–	–
Danio rerio embryo [14], exposure time: 4 dpf	–	–	–	–	–	–	–	–	–	0.048	–	–	–	–	–
Danio rerio embryo [15], exposure time: 2 dpf	0.008	–	–	–	–	–	–	–	–	–	–	–	–	–	–
Danio rerio embryo [15], exposure time: 4 dpf	0.006	–	–	–	–	–	–	–	–	–	–	–	–	–	–
Danio rerio embryo [22], exposure time: 2 dpf	–	–	0.007	–	–	–	–	–	–	–	–	–	–	–	–
Danio rerio embryo [22], exposure time: 4 dpf	–	–	0.006	–	–	–	–	–	–	–	–	–	–	–	–
Danio rerio embryo [27], 1 µM	–	–	–	–	–	–	–	–	–	–	–	–	–	–	3.33
Danio rerio embryo [27], 6.25 µM	–	–	–	–	–	–	–	–	–	–	–	–	–	–	2.34
Danio rerio embryo [27], 12.5 µM	–	–	–	–	–	–	–	–	–	–	–	–	–	–	2.17
Danio rerio embryo [27], 25 µM	–	–	–	–	–	–	–	–	–	–	–	–	–	–	2.1
Danio rerio embryo [27], 50 µM	–	–	–	–	–	–	–	–	–	–	–	–	–	–	1.74
Danio rerio embryo [28], exposure time: 2 dpf	–	–	–	–	–	–	–	–	–	–	0.013	–	–	–	–
Danio rerio embryo [28], exposure time: 4 dpf	–	–	–	–	–	–	–	–	–	–	0.01	–	–	–	–
Danio rerio embryo [30], exposure time: 2 dpf	–	–	–	–	–	–	–	0.021	–	–	–	–	–	–	–
Danio rerio embryo [30], exposure time: 4 dpf	–	–	–	–	–	–	–	0.036	–	–	–	–	–	–	–
Danio rerio embryo [32], exposure time: 2 dpf	–	–	–	–	–	–	–	–	0.009	–	–	–	–	–	–
Danio rerio embryo [32], exposure time: 4 dpf	–	–	–	–	–	–	–	–	0.011	–	–	0.0274	–	–	–
Danio rerio embryo [32], exposure time: 25 h	–	–	–	–	–	–	–	–	–	–	–	–	0.076	–	–
Danio rerio embryo [40], exposure time: 2 dpf	–	–	–	0.013	–	–	–	–	–	–	–	–	–	–	–
Danio rerio embryo [40], exposure time: 4 dpf	–	–	–	0.034	–	–	–	–	–	–	–	–	–	–	–

Conditions	EC10 Bladder size Decrease [µM]	EC10 Eye size Decrease [µM]	EC10 Eye-jaw distance Decrease [µM]	EC10 Head size Decrease [µM]	EC10 Head trunk angle Decrease [µM]	EC10 LMR dark [µM]	EC10 LMR ligth decrease [µM]	EC10 Lack of SB [µM]	EC10 Pericard size Increase [µM]	EC10 STC decrease [µM]	EC20 Bladder size Decrease [µM]	EC20 Eye size Decrease [µM]	EC20 Eye-jaw distance Decrease [µM]	EC20 Head size Decrease [µM]	EC20 Head trunk angle Decrease [µM]	EC20 LMR dark [µM]	EC20 LMR ligth decrease [µM]	EC20 Lack of SB [µM]	EC20 Pericard size Increase [µM]	EC20 STC decrease [µM]	EC50 Bladder size Decrease [µM]	EC50 Eye size Decrease [µM]	EC50 Eye-jaw distance Decrease [µM]	EC50 Head size Decrease [µM]	EC50 Head trunk angle Decrease [µM]	EC50 LMR dark [µM]	EC50 Lack of SB [µM]	EC50 Pericard size Increase [µM]
Danio rerio embryo [3]	–	–	–	–	–	–	–	–	–	–	–	–	–	–	–	–	0.00475	–	–	–	–	–	–	–	–	–	–	–
Danio rerio embryo [4]	–	–	–	–	–	–	–	–	–	–	–	–	–	–	–	–	–	–	–	–	–	–	–	–	0.011	–	–	–
Danio rerio embryo [5]	–	–	–	–	–	0.016	–	–	–	–	–	–	–	–	–	–	–	–	–	–	–	–	–	–	–	–	–	–
Danio rerio embryo [6]	–	–	–	–	–	–	–	–	–	–	–	–	–	–	–	–	–	–	–	–	–	–	–	–	–	–	–	0.039
Danio rerio embryo [7]	–	–	–	–	–	–	–	–	–	0.00122	–	–	–	–	–	–	–	–	–	–	–	–	–	–	–	–	–	–
Danio rerio embryo [8]	–	–	–	–	–	–	–	–	0.035	–	–	–	–	–	–	–	–	–	–	–	–	–	–	–	–	–	–	–
Danio rerio embryo [12]	–	–	–	–	–	–	–	–	–	–	–	–	–	0.026	–	–	–	–	–	–	–	–	–	–	–	–	–	–
Danio rerio embryo [13]	–	–	–	–	0.002	–	–	–	–	–	–	–	–	–	–	–	–	–	–	–	–	–	–	–	–	–	–	–
Danio rerio embryo [16]	–	–	–	–	–	–	0.0017	–	–	–	–	–	–	–	–	–	–	–	–	–	–	–	–	–	–	–	–	–
Danio rerio embryo [17]	–	–	–	–	–	–	–	–	–	–	–	0.036	–	–	–	–	–	–	–	–	–	–	–	–	–	–	–	–
Danio rerio embryo [18]	–	–	–	–	–	–	–	–	–	–	–	–	–	–	–	0.022	–	–	–	–	–	–	–	–	–	–	–	–
Danio rerio embryo [19]	–	–	–	–	–	–	–	–	–	–	–	–	–	–	–	–	–	–	0.036	–	–	–	–	–	–	–	–	–
Danio rerio embryo [20]	–	–	–	–	–	–	–	–	–	–	–	–	–	–	–	–	–	–	–	0.0056	–	–	–	–	–	–	–	–
Danio rerio embryo [21]	–	–	–	–	–	–	–	–	–	–	0.012	–	–	–	–	–	–	–	–	–	–	–	–	–	–	–	–	–
Danio rerio embryo [23]	–	–	–	–	–	–	–	–	–	–	–	–	–	–	–	–	–	–	–	–	–	–	–	–	–	0.036	–	–
Danio rerio embryo [24]	–	–	–	–	–	–	–	–	–	–	–	–	–	–	–	–	–	–	–	–	0.017	–	–	–	–	–	–	–
Danio rerio embryo [25]	–	–	–	–	–	–	–	–	–	–	–	–	–	–	0.004	–	–	–	–	–	–	–	–	–	–	–	–	–
Danio rerio embryo [26]	–	–	–	–	–	–	–	–	–	–	–	–	–	–	–	–	–	–	–	–	–	0.038	–	–	–	–	–	–
Danio rerio embryo [29]	–	–	–	0.019	–	–	–	–	–	–	–	–	–	–	–	–	–	–	–	–	–	–	–	–	–	–	–	–
Danio rerio embryo [31]	–	–	–	–	–	–	–	–	–	–	–	–	–	–	–	–	–	–	–	–	–	–	–	–	–	–	0.02	–
Danio rerio embryo [33]	–	0.034	–	–	–	–	–	–	–	–	–	–	–	–	–	–	–	–	–	–	–	–	–	–	–	–	–	–
Danio rerio embryo [34]	–	–	–	–	–	–	–	–	–	–	–	–	0.028	–	–	–	–	–	–	–	–	–	–	–	–	–	–	–
Danio rerio embryo [35]	0.011	–	–	–	–	–	–	–	–	–	–	–	–	–	–	–	–	–	–	–	–	–	–	–	–	–	–	–
Danio rerio embryo [36]	–	–	–	–	–	–	–	–	–	–	–	–	–	–	–	–	–	–	–	–	–	–	0.033	–	–	–	–	–
Danio rerio embryo [37]	–	–	–	–	–	–	–	–	–	–	–	–	–	–	–	–	–	–	–	–	–	–	–	0.042	–	–	–	–
Danio rerio embryo [38]	–	–	–	–	–	–	–	0.012	–	–	–	–	–	–	–	–	–	–	–	–	–	–	–	–	–	–	–	–
Danio rerio embryo [39]	–	–	0.025	–	–	–	–	–	–	–	–	–	–	–	–	–	–	–	–	–	–	–	–	–	–	–	–	–
Danio rerio embryo [41]	–	–	–	–	–	–	–	–	–	–	–	–	–	–	–	–	–	0.015	–	–	–	–	–	–	–	–	–	–

— the supplement of paper PMC9013687
